Measured values reported in patent publication US20240196889A1, “USE OF DI- AND TRI[…] ACIDS IN THE PREVENTION OF BIOFILM FORMATION” (priority 2020, published 2024).

System: Salmonella biofilms
Test: Tolerance assay of mature biofilms (H2O2 or ciprofloxacin, CFU)
Assay type: cell-based
Details: grown 48 h with 100 μM
Description: It is well established that biofilms can be extremely tolerant to treatment with antimicrobials. To test whether the preventive addition of agaric acid renders Salmonella biofilms more susceptible to treatment with common disinfectants or antibiotics, biofilms grown in the presence and absence of agaric acid for 48 hour were treated for 1 h with 0.25% H2O2 or 1 μM ciprofloxacin. Hydrogen peroxide is a commonly used disinfectant in food industry [Meireles et al. (2016) Food Research International 82, 71-85; Meireles et al. (2016) Food Research International 82, 71-85], whereas ciprofloxacin is a fluoroquinolone antibiotic frequently used to treat Salmonella infections [Tabak et al. (2009) FEMS microbiology letters 301, 69-76].
To determine the tolerance of mature biofilms, biofilms were grown on microscopy glasses (75 mm×25 mm) placed vertical in a 50 ml falcon filled with 30 ml TSB 1/20. This set-up allows for easy transfer of mature biofilms as the top of vertical slide sticks out of the medium which allows to grab the slide with a pincer without damaging the biofilm. ONC of Salmonella were normalized to an OD600 of 3.2 and diluted 1/100 into the broth containing either a final concentration of 100 μM agaric or the corresponding amount of DMSO. […] The number of colony forming units (CFU) of biofilms was determined by plating.

In the case of `CCCCCCCCCCCCCCCCC(C(=O)O)C(O)(CC(=O)O)C(=O)O` (centres unmarked) [Agaric acid, 2-hydroxynonadecane-1,2,3-tricarboxylic acid], the “susceptibility of biofilms to ciprofloxacin” value (then 1 μM ciprofloxacin for 1 h) is reported as “further increased the effect of a ciprofloxacin treatment, albeit not significantly” and the “susceptibility of biofilms to H2O2” value (then 0.25% H2O2 for 1 h) is reported as “significantly more susceptible to hydrogen peroxide”.
